Species: Rattus norvegicus
Assay: DrugMatrix - Regimen: Daily Repeat
Type: toxicity, organism-based, Sprague-Dawley
Set-up: regimen Daily Repeat, gender Male, age 6-8 weeks
Details: in vivo, po, route oral GAVAGE, vehicle 100 % WATER; for ABSOLUTE BASOPHIL / ABSOLUTE EOSINOPHIL / ABSOLUTE LYMPHOCYTE / ABSOLUTE MONOCYTE / ABSOLUTE SEGMENTED NEUTROPHIL / BASOPHIL / EOSINOPHIL / ERYTHROCYTE COUNT / HEMATOCRIT / HEMOGLOBIN / LEUKOCYTE COUNT / LYMPHOCYTE / MEAN CORPUSCULAR HEMOGLOBIN / MEAN CORPUSCULAR HEMOGLOBIN CONCENTRATION / MEAN CORPUSCULAR VOLUME / MONOCYTE / NEUTROPHIL / NUCLEATED RED BLOOD CELLS / PLATELET COUNT: tissue Blood; for ALANINE AMINOTRANSFERASE / ALBUMIN / ALKALINE PHOSPHATASE / ASPARTATE AMINOTRANSFERASE / BLOOD UREA NITROGEN / CARBON DIOXIDE / CHLORIDE / CHOLESTEROL / CREATINE PHOSPHOKINASE / CREATININE / GLUCOSE / LACTATE DEHYDROGENASE / LIPASE / PHOSPHORUS / POTASSIUM / SODIUM / TOTAL BILIRUBIN / TOTAL PROTEIN / URIC ACID: tissue Plasma
[1] = 39 mg/kg, 120 h, dose level Low, time 5 day
[2] = 150 mg/kg, 72 h, dose level High, time 3 day
[3] = 150 mg/kg, 120 h, dose level High, time 5 day

C[C@]12Cc3c[nH]nc3C[C@@H]1CC[C@@H]1[C@@H]2CC[C@@]2(C)[C@H]1CC[C@]2(C)O [STANOZOLOL]
ABSOLUTE BASOPHIL [1]: 0 CELLS/uL | ABSOLUTE EOSINOPHIL [1]: 55.33 CELLS/uL | ABSOLUTE LYMPHOCYTE [1]: 11411 CELLS/uL | ABSOLUTE MONOCYTE [1]: 142 CELLS/uL | ABSOLUTE SEGMENTED NEUTROPHIL [1]: 1025 CELLS/uL | BASOPHIL [1]: 0% | EOSINOPHIL [1]: 0.33% | ERYTHROCYTE COUNT [1]: 5.64 x10E6/uL | HEMATOCRIT [1]: 35.63% | HEMOGLOBIN [1]: 13.63 G/DL | LEUKOCYTE COUNT [1]: 12.63 x10E3/uL | LYMPHOCYTE [1]: 90.33% | MEAN CORPUSCULAR HEMOGLOBIN [1]: 24.33 pg | MEAN CORPUSCULAR HEMOGLOBIN CONCENTRATION [1]: 38.33 G/DL | MEAN CORPUSCULAR VOLUME [1]: 63.43 fL | MONOCYTE [1]: 1.33% | NEUTROPHIL [1]: 8% | NUCLEATED RED BLOOD CELLS [1]: 0.67 /100WBC | PLATELET COUNT [1]: 1199.33 x10E3/uL | ALANINE AMINOTRANSFERASE [1]: 55.67 u/L | ALBUMIN [1]: 3.87 G/DL | ALKALINE PHOSPHATASE [1]: 492.33 u/L | ASPARTATE AMINOTRANSFERASE [1]: 81.67 u/L | BLOOD UREA NITROGEN [1]: 13.33 mg/dL | CARBON DIOXIDE [1]: 32.67 mmol/L | CHLORIDE [1]: 98.67 MEQ/L | CHOLESTEROL [1]: 35 mg/dL | CREATINE PHOSPHOKINASE [1]: 259.67 u/L | CREATININE [1]: 0.16 mg/dL | GLUCOSE [1]: 144 mg/dL | LACTATE DEHYDROGENASE [1]: 113 u/L | LIPASE [1]: 8 u/L | PHOSPHORUS [1]: 10.33 mg/dL | POTASSIUM [1]: 5.69 MEQ/L | SODIUM [1]: 144.47 MEQ/L | TOTAL BILIRUBIN [1]: 0.2 mg/dL | TOTAL PROTEIN [1]: 6.07 G/DL | URIC ACID [1]: 0.33 mg/dL | ABSOLUTE BASOPHIL [2]: 0 CELLS/uL | ABSOLUTE EOSINOPHIL [2]: 39.67 CELLS/uL | ABSOLUTE LYMPHOCYTE [2]: 9030.67 CELLS/uL | ABSOLUTE MONOCYTE [2]: 107.33 CELLS/uL | ABSOLUTE SEGMENTED NEUTROPHIL [2]: 755.67 CELLS/uL | BASOPHIL [2]: 0% | EOSINOPHIL [2]: 0.33% | ERYTHROCYTE COUNT [2]: 6.43 x10E6/uL | HEMATOCRIT [2]: 39.27% | HEMOGLOBIN [2]: 14.53 G/DL | LEUKOCYTE COUNT [2]: 9.93 x10E3/uL | LYMPHOCYTE [2]: 91% | MEAN CORPUSCULAR HEMOGLOBIN [2]: 22.63 pg | MEAN CORPUSCULAR HEMOGLOBIN CONCENTRATION [2]: 37.07 G/DL | MEAN CORPUSCULAR VOLUME [2]: 61.07 fL | MONOCYTE [2]: 1% | NEUTROPHIL [2]: 7.67% | NUCLEATED RED BLOOD CELLS [2]: 0.33 /100WBC | PLATELET COUNT [2]: 951 x10E3/uL | ALANINE AMINOTRANSFERASE [2]: 74 u/L | ALBUMIN [2]: 4.1 G/DL | ALKALINE PHOSPHATASE [2]: 493.67 u/L | ASPARTATE AMINOTRANSFERASE [2]: 138.33 u/L | BLOOD UREA NITROGEN [2]: 12.67 mg/dL | CARBON DIOXIDE [2]: 34.33 mmol/L | CHLORIDE [2]: 96.5 MEQ/L | CHOLESTEROL [2]: 46.67 mg/dL | CREATINE PHOSPHOKINASE [2]: 1177 u/L | CREATININE [2]: 0.14 mg/dL | GLUCOSE [2]: 134.33 mg/dL | LACTATE DEHYDROGENASE [2]: 200 u/L | LIPASE [2]: 11 u/L | PHOSPHORUS [2]: 11.53 mg/dL | POTASSIUM [2]: 6.12 MEQ/L | SODIUM [2]: 142.35 MEQ/L | TOTAL BILIRUBIN [2]: 0.33 mg/dL | TOTAL PROTEIN [2]: 6.33 G/DL | URIC ACID [2]: 0.5 mg/dL | ABSOLUTE BASOPHIL [3]: 0 CELLS/uL | ABSOLUTE EOSINOPHIL [3]: 31.33 CELLS/uL | ABSOLUTE LYMPHOCYTE [3]: 9499.67 CELLS/uL | ABSOLUTE MONOCYTE [3]: 0 CELLS/uL | ABSOLUTE SEGMENTED NEUTROPHIL [3]: 1135.67 CELLS/uL | BASOPHIL [3]: 0% | EOSINOPHIL [3]: 0.33% | ERYTHROCYTE COUNT [3]: 6.28 x10E6/uL | HEMATOCRIT [3]: 37.87% | HEMOGLOBIN [3]: 14.4 G/DL | LEUKOCYTE COUNT [3]: 10.67 x10E3/uL | LYMPHOCYTE [3]: 88.67% | MEAN CORPUSCULAR HEMOGLOBIN [3]: 22.93 pg | MEAN CORPUSCULAR HEMOGLOBIN CONCENTRATION [3]: 38.03 G/DL | MEAN CORPUSCULAR VOLUME [3]: 60.33 fL | MONOCYTE [3]: 0% | NEUTROPHIL [3]: 11% | NUCLEATED RED BLOOD CELLS [3]: 0 /100WBC | PLATELET COUNT [3]: 1393.33 x10E3/uL | ALANINE AMINOTRANSFERASE [3]: 46 u/L | ALBUMIN [3]: 3.87 G/DL | ALKALINE PHOSPHATASE [3]: 445.33 u/L | ASPARTATE AMINOTRANSFERASE [3]: 64.67 u/L | BLOOD UREA NITROGEN [3]: 16 mg/dL | CARBON DIOXIDE [3]: 32.33 mmol/L | CHLORIDE [3]: 99 MEQ/L | CHOLESTEROL [3]: 12.33 mg/dL | CREATINE PHOSPHOKINASE [3]: 238.67 u/L | CREATININE [3]: 0.14 mg/dL | GLUCOSE [3]: 131.33 mg/dL | LACTATE DEHYDROGENASE [3]: 117.33 u/L | LIPASE [3]: 7.67 u/L | PHOSPHORUS [3]: 11.13 mg/dL | POTASSIUM [3]: 5.01 MEQ/L | SODIUM [3]: 144.1 MEQ/L | TOTAL BILIRUBIN [3]: 0.1 mg/dL | TOTAL PROTEIN [3]: 5.8 G/DL | URIC ACID [3]: 0.3 mg/dL

Source: ChEMBL document CHEMBL3885881, “DrugMatrix”
